Source: US11357786B2, “Synthetic disugar hydrocarbons as natural analogs to control microbial behaviors” (Syracuse University, priority 2014, dated 2022)

Legend:
Assay type in all cases: cell-based, Pseudomonas aeruginosa
[1] = test system: nonswarming P. aeruginosa mutant rhlA; test: Swarming motility of nonswarming rhlA mutant on soft agar (reactivation / agonist assay); conditions: for Swarming motility of rhlA mutant: 85 μM in soft agar (0.5%), 24 h; for Concentration of activity reversal for swarming promotion of rhlA mutant (transition concentration): soft agar
Excerpt: Using nonswarming mutant to screen for swarming agonists and wild type P. aeruginosa for swarming antagonists. The transposon mutant, rhlA (genotype, rhlA-E08:ISphoA/hah)39 of P. aeruginosa (PAO1), that impairs the gene that is responsible for synthesizing rhamnolipids is completely incapable of a swarming motility. […] Based on this inference, a rhlA mutant was used in a swarming experiment to screen the saccharide-hydrocarbons for agonists that can reactivate the swarming motility of rhlA.
(§1) Swarm agar plates were based on M8 medium supplemented with 0.2% glucose, 0.5% casamino acid, 1 mM MgSO4 and […]. 17 For each set of experiment all the swarm plates were poured from same batch of agar and allowed to dry for 1 h before inoculation of bacteria. Bacterial culture (3 μl) (wild type PAO1 or rhlA mutant) with OD600 between […] was inoculated on the solidified agar plates. Swarm agar plates were incubated at 37° C. for 12 h and then incubated for additional 12 h at room temp. Chronological images of swarm plates were taken using a camera. To measure swarming area, sizes of the petridish in all swarming images were adjusted to a pre-assigned diameter and images were printed on copying paper (Xerox-business 4200). Weight of a 1 cm^2 copy paper square was roughly ˜8.0 mg. swarming images on the copy paper were cut and weighed, the swarm area was calculated by dividing the weight of image by weight of 1 cm^2 square (8 mg).
(§2) Swarm agar plates were made using M8 medium supplemented with 0.2% glucose, 0.5% casamino acid, 1 mM MgSO4 and solidified with 0.5% Bacto agar. 24 Bacterial culture with OD600 between 0.4 to 0.6 was inoculated as 3 μl aliquots. Swarm agar plates were incubated at 37° C. for 12 h and then incubated for additional 12 h at rt. For each set of experiment all the swarm plates were poured from same batch of agar and allowed to dry for 1 h before inoculation of bacteria.

[2] = test system: PAO1 biofilm; test: Crystal violet dye based biofilm inhibition assay, maltose derivatives (Example 1); conditions: 110 μM, 24 h, CV assay
Description: A crystal violet (CV) assay was used to measure the amount of PAO1 biofilm formed after 24 h of bacterial inoculation. The fluorescence of green fluorescent proteins (GFP) expressed by PAO1-GFP was measured to directly quantify bacterial adhesion on polystyrene black 96 well plates with and without maltose derivatives after 2 h of bacterial inoculation. To evaluate the potential of maltose derivatives as both anti-biofilm and anti-adhesion agents, they were compared to a brominated furanone (BF8) known to inhibit biofilm formation, and two generic surfactants, sodium dodecyl sulfate (SDS) and tetra (ethylene glycol) monododecyl ether (C12EG4OH). […] P. aeruginosa strain PAO1-EGFP that constitutively producing green fluorescent protein was allowed to form biofilm on sterile steel coupons.
Inhibitory effect of all the maltose hydrocarbons on P. aeruginosa biofilm formation was determined by crystal violet dye based biofilm inhibition assays. Overnight culture of wild type P. aeruginosa (PAO1) was sub cultured to an OD600 of 0.01 into the 95:5 M9+:Lb medium. 200 μL of the sub culture was aliquoted into the wells of 96 well polystyrene microtiter plate when it reached the OD600 of 0.1. Predetermined concentrations of the test compounds were then added to the respective wells containing sub culture. Sample plates were wrapped in GLAD Press n′ Seal® followed by incubation under stationary conditions for 24 h at 37° C. After incubation the media was discarded and the plates were washed with water and dried for 1 h at 37° C. The sample plates were stained with 200 μL of 0.1% aqueous solution of crystal violet (CV) and followed by incubation at ambient temperature for 20 min. The CV stain was then discarded and the plates were washed with water. The remaining biofilm adhered stain was re-solubilized with 200 μL of 30% acetic acid. After the stain was dissolved (15 minutes), 100 μL of the solubilized CV was transferred from each well into the corresponding wells of a new polystyrene microtiter dish. Biofilm inhibition was quantified by measuring the OD600 of each well in which a negative control lane wherein no biofilm was formed served as a background and was subtracted out. The percent inhibition was calculated by the comparison of the OD600 for biofilm grown in the absence of compound (control) versus biofilm grown in the presence of compound under identical conditions.
Predetermined amounts maltose derivatives stock solution was added to the 200 μL bacterial culture in 96 well plate so that the final concentration of the agent reaches the desired values of 1, 5, 10, 20, 40, 85, 113, 140 μM. Biofilm inhibition and dispersion assay was carried as described previously.

[3] = test system: 1-day old PAO1 biofilm; test: Crystal violet assay for dispersion of 1-day old biofilm, DSHs (Examples 2 and 4); conditions: 160 μM, another 24 h
Description: (§3) The effect that DSHs have on the adhesion of PAO1-EGFP on polystyrene surface (microtiter plate) was also examined. PAO1-EGFP is a P. aeruginosa strain that constitutively expresses green fluorescent protein. In the adhesion assays, PAO1-EGFP was grown in microtiter plate for 24-hours in LB-media with (160 μM) or without DSHs. After 24-hours, the fluorescent signal obtained from surface adhered PAO1-EGFP was measured. Percent reduction in fluorescence was calculated by comparing fluorescent signal from PAO1-EGFP grown in LB-media with the signal from wells that had DSHs (FIG. 29A). To study the effect of DSHs on biofilm formation, Pseudomonas aeruginosa (PAO1) was grown in LB-media with (160 μM) or without DSHs at 37° C. under static conditions within wells of microtiter plates. After 24 hours, the surface attached biofilms adhering to the bottom of the wells were stained with crystal-violet dye and the biofilm was quantified by measuring absorbance at 600 nm (OD600). The percent inhibition was calculated by comparing biofilm content of wells with no added agents (control) with the biofilm content from wells that had 160 μM of DSHs (FIG. 29A). Similar to inhibition, the surface attached biofilm after dispersion with DSHs was quantified with crystal-violet staining and absorbance measurement at 600 nm, except that for dispersion, biofilm was first grown for 1 day in just LB-media without any DSHs after which DSHs were added and plates were incubated for additional 24 hours followed by quantification (FIG. 29B).
Crystal violet based assay for quantifying dispersion of 1-day old PAO1 biofilms were Plate for set up similar to inhibition assay with a slight modification. Wells of the micro-titer plate was inoculated with (200 μL) bacterial subculture (PAO1 subculture OD600 ˜0.1). The plates were incubated at 37° C. for 24 hours to allow biofilm formation. After 24 hours, bacterial culture was gently pipetted out and appropriate volume of DSH were added followed by addition of fresh LB medium (200 μL). The microtiter plate was incubated for an additional 24 hours at 37° C., following which, similar to work up of inhibition assay, culture was removed, wells were washed and CV-dye was introduced, followed by washing and destaining with 30% AcOH solution in water and quantification at 600 nm. Here again, only the surface attached biofilm dispersed was reported by comparing wells with DSHs with wells with no agent.
Dose dependence assays for biofilm inhibition and dispersion. […] Both for biofilm inhibition and dispersion, predetermined volumes of DSH stocks were added to the assigned wells to span a concentration range between 0.5 μM-170 μM. Percent biofilm inhibition of dispersion was calculated by comparing to wells with no agent. The percent biofilm inhibition or dispersion was plotted versus concentration of DSHs. The linear values were logarithmically curve fitted using equation […]. The half maximal inhibitory concentration for both biofilm inhibition and dispersion (IC50 and DC50) were thus obtained.

[4] = test system: PAO1 biofilm; test: Crystal violet based static biofilm inhibition assay, DSHs in LB media (Examples 2 and 4); conditions: for Inhibition of PAO1 biofilm formation (surface attached): 160 μM, 24 h, LB media; for Anti-biofilm activity (biofilm inhibition): concentration not given
Description: The ability of DSHs was tested to inhibit Pseudomonas aeruginosa adhesion, biofilm and to disperse pre-formed biofilm. To quantify the amount of PAO1/EGFP attached on the surface of micro titer plates with or without the synthesized DSHs, fluorescence emitted by green fluorescent proteins (GFP) was quantified (see supporting info for details). Crystal violet (CV) based static biofilm assay (see supporting info) was used to screen the anti-biofilm potencies of all synthesized agents. Both surface attached (SA) (FIG. 17) and total (SA+air-liquid interface) biofilm of P. aeruginosa was quantified. […] CV assays were also used to quantify the amount of P. aeruginosa biofilm remaining after dispersion experiments (FIG. 19). Initially, all agents were screen for anti-biofilm activities (both inhibition and dispersion) at 160 μM. […] All reported biofilm inhibition results are an average of 4 identical wells.
as §3, with “The percent inhibition was calculated by comparing biofilm content of wells with no added agents (control) with the biofilm content from wells that had 160 μM of DSHs (FIG. 29A).” left out
Crystal violet (CV) based-biofilm inhibition assay. Inhibitory effect of all synthesized disaccharide hydrocarbons on biofilm formation of Pseudomonas aeruginosa (wild type PAO1) was determined by static biofilm inhibition assay using crystal violet staining. Overnight culture of PAO1 were sub cultured in LB media to OD600 of 0.01 and further the OD600 was allowed to reach ˜0.1. The bacterial sub-culture (200 μL) was then added into the wells of a microtiter plate. Predetermined concentrations of DSHs were added to respective wells containing sub culture by pipetting out fixed volume of sterile aqueous stock solutions (except DβL (7), SPOT, (15) and 2-ODαC (17), which were introduced as stocks prepared in H2O […] and EtOH (90:10) solutions). The microtiter plates were then wrapped in GLAD Press n′ Seal® (saran wrap) and further incubated under stationary conditions for 24 h at 37° C. After 24 h incubation, the culture media was discarded by pipetting carefully (without disrupting biofilm), the plate was then washed once with sterile water (200 μL) and allowed to dry at 37° C. for ˜30 mins. Microtiter plates were then stained with 0.1% aqueous solution of crystal violet (CV) (200 μL) at rt for ˜30 mins. Following this, the CV stain was removed and plate was again washed with sterile water (200 μL). Resultant CV stain in the well was then solubilized by adding 100 μL of 30% AcOH solution (in water) and mixing gently by pipetting.

[5] = test system: wild type PAO1; test: Swarming motility of wild type PAO1 on soft agar (antagonist assay); conditions: for Concentration of activity reversal for swarming inhibition of PAO1 (transition concentration): soft agar
Description: In contrast, the wild type P. aeruginosa produces the rhamnolipids and is capable of swarming on soft agar gel (˜0.5% agar). […] We note that saccharide hydrocarbons may also promote the swarming motility, but such promotions are less unambiguous than the inhibition for wild type PAO1. Such promotion will be unambiguous in the agonist assay using the nonswarming mutant rhlA.
as §1, §2

Compound: CCCCCCCCCCC(CO[C@@H]1O[C@H](CO)[C@@H](O[C@H]2O[C@H](CO)[C@@H](O)[C@H](O)[C@H]2O)[C@H](O)[C@H]1O)Cc1ccc(C(C)(C)C)cc1 (stereo partly drawn) [4-tBuBDβM, 4-tertiary butyl benzyl dodecyl β-maltoside]
- Swarming motility of rhlA mutant [1]: did not exhibit any significant activation of swarming
- Inhibition of PAO1 biofilm [2]: 74%

Compound: CCCCCCCCCCC(CCCCCCCC)CO[C@H]1O[C@H](CO)[C@@H](O[C@@H]2O[C@H](CO)[C@@H](O)[C@H](O)[C@H]2O)[C@H](O)[C@H]1O (stereo partly drawn) [2-ODαC (17), 2-octyl-dodecyl-α-cellobioside]
- Dispersion of 24-h old PAO1 biofilm [3]: not active for biofilm inhibition or dispersion
- Inhibition of PAO1 biofilm formation (surface attached) [4]: not active for biofilm inhibition or dispersion
- Inhibition of PAO1 biofilm formation (surface attached) ([4]; listed as 17: 2-ODαC, 160 µM): ineffective at biofilm inhibition

Compound: benzyl decyl β-maltoside [BDeβM]
- Swarming motility of rhlA mutant [1]: swarming motility with without well-defined tendrils
- Inhibition of PAO1 biofilm [2]: 50%

Compound: CCCCCCCCCCCCO[C@@H]1O[C@H](CO)[C@@H](O)[C@H](O)[C@H]1O [DβG (8), dodecyl-β-glucoside]
- Swarming motility of wild type PAO1 ([5]; 85 μM in soft agar, 24 h): inhibited the swarming motility of wild type PAO1
- Concentration of activity reversal for swarming inhibition of PAO1 (transition concentration) [5]: ~50 to 60 µM
- Concentration of activity reversal for swarming inhibition of PAO1 (transition concentration) ([5]; listed as 8): 35 to 50 µM
- Swarming motility of rhlA mutant [1]: no apparent effect on rhlA
- Reactivation of swarming motility of rhlA mutant ([1]; concentration not given): activated the swarming motility of rhlA mutant
- Concentration of activity reversal for swarming promotion of rhlA mutant (transition concentration) [1]: ~35 to 50 µM
- Concentration of activity reversal for swarming promotion of rhlA mutant (transition concentration) ([1]; listed as 8): 35 µM
- Inhibition of PAO1 biofilm formation (surface attached) ([4]; listed as 8: DβG, 160 µM): poor anti-biofilm activity
- Anti-biofilm activity (biofilm inhibition) [4]: weak anti-biofilm activity
- Anti-biofilm activity (biofilm inhibition) ([4]; listed as DOG (8)): did not show significant inhibition of PAO1 biofilm
